SMILES strings stand for the structures.

By IC50 is commonly meant the concentration that inhibits the measured activity by half.

For the first experiment, the target named is T1, CDK8/CycC (Homo sapiens, UniProt P49336).
T1 construct: purchased Invitrogen PV4402
T1 sequence (P49336 whole entry): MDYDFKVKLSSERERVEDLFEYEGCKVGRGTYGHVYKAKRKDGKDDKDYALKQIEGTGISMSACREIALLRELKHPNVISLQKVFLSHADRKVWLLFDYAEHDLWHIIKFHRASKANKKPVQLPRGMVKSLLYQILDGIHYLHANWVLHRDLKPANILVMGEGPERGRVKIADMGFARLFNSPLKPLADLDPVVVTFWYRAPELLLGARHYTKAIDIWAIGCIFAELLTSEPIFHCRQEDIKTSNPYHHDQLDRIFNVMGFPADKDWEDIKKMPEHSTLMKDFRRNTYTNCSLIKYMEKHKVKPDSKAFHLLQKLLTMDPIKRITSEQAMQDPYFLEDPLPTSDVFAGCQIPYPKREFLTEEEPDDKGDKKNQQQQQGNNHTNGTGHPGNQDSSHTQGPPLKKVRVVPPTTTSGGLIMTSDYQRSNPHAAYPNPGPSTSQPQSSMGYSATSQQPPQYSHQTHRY
T1 sequence (P24863 whole entry partner): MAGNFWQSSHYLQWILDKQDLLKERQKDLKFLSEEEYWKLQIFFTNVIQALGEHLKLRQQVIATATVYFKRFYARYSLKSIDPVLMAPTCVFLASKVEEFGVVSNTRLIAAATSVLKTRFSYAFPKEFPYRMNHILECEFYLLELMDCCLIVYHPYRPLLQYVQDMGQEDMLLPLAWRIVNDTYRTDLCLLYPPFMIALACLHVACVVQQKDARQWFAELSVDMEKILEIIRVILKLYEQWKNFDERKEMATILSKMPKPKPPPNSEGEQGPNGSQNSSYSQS
Briefly: FRET based Lanthascreen binding competition assay for CDK8 inhibitory activity. The following applies: CDK8 co-expressed with CycC; class symbols; read-out: IC50. An excerpt:
Biochemical Assay for CDK8 Inhibitory Activity FRET based Lanthascreen binding competition assay: A dye-labeled ATP competitive probe served as a FRET acceptor upon binding to CDK8 labeled with a strepavidin -Eu-chelate (via a biotinylated anti His antibody). The result was a fluorescence signal at 647 nm. In case this probe was competed by an inhibitor, such a signal cannot be generated any more. The CDK8 used for this assay was a protein co-expressed with CycC. The assay procedure for an assay in a 1536 well plate was performed according to the following: 2 μL CDK8/biotin-anti-His Ab/SA-Eu mix in Assay buffer were pipetted into the wells of a micro plate. 1 μL compound in 20 mM Hepes buffer/5% DMSO was added. The plate was shaken for 30 sec and incubated for 20 min at RT. 2 μL Alexa647-probe in assay buffer were added. The plate was shaken for 30 sec again and incubated for 60 min at RT in the dark. Then the plate was read out on a Perkin Elmer Envision (mode LANCE/TRF, excitation 340 nm emission 650 nm). […] The readouts were fitted to IC50 curves using Genedata Condoseo.
For the molecule `CCCc1n[nH]c2ccc(C(=O)N3CCCC3c3ccc(Br)cc3)cc12` (racemic) [compound 4, [2-(4-Bromo-phenyl)-pyrrolidin-1-yl]-(3-propyl-1H-indazol-5-yl)-methanone], the IC50 is below 0.01 µM.

With `O=C(c1ccc2[nH]ncc2c1)N1CCCC1c1ccc(Br)cc1` (racemic) [compound 154], the IC50 is 0.01 to 0.1 µM.

Regarding `O=C(c1cnc2[nH]nc(C(F)(F)F)c2c1)N1CCCC1c1ccc(Cl)cc1` (racemic) [compound 177, [2-(4-Chloro-phenyl)-pyrrolidin-1-yl]-(3-trifluoromethyl-1H-pyrazolo[3,4-b]pyridin-5-yl)-methanone], the IC50 was in the range of 0.01 to 0.1 µM.

Regarding `CC(C)c1ccc(C2CCCN2C(=O)c2ccc3[nH]nc(N)c3c2)cc1` (racemic) [compound 191, (3-Amino-1H-indazol-5-yl)-[2-(4-isopropyl-phenyl)-pyrrolidin-1-yl]-methanone], the concentration for half-maximal inhibition (IC50) was in the range of 0.01 to 0.1 µM.

As to `Cc1n[nH]c2ncc(C(=O)N3CCCC3c3ccc(C(C)C)cc3)cc12` (racemic) [compound 192, [2-(4-Isopropyl-phenyl)-pyrrolidin-1-yl]-(3-methyl-1H-pyrazolo[3,4-b]pyridin-5-yl)-methanone], the half-inhibitory concentration (IC50) is below 0.01 µM.

As for `Cc1n[nH]c2ncc(C(=O)N3CCC(O)(c4ccccc4)C3)cc12` (racemic) [compound 193, (3-Hydroxy-3-phenyl-pyrrolidin-1-yl)-(3-methyl-1H-pyrazolo[3,4-b]pyridin-5-yl)-methanone], the concentration for half-maximal inhibition (IC50) was 1 to 10 µM.

Consider `CC(=O)N[C@@H]1CN(C(=O)c2ccc3[nH]nc(N)c3c2)C[C@H]1c1ccc(Cl)cc1` (racemic) [compound 263, N-[(3S,4R)-1-(3-Amino-1H-indazole-5-carbonyl)-4-(4-chloro-phenyl)-pyrrolidin-3-yl]-acetamide (racemic)], for which the IC50 was in the range of 0.01 to 0.1 µM.

For the molecule `CC(=O)N[C@@H]1CN(C(=O)c2cnc3[nH]nc(C)c3c2)C[C@H]1c1ccc(Cl)cc1` (racemic) [compound 264, N-[(3S,4R)-4-(4-Chloro-phenyl)-1-(3-methyl-1H-pyrazolo[3,4-b]pyridine-5-carbonyl)-pyrrolidin-3-yl]-acetamide (racemic)], the IC50 is 0.01 to 0.1 µM.

As for `Nc1n[nH]c2ccc(C(=O)N3CCCCC3Cc3ccccc3)cc12` (stereo in doubt) [compound 86, (3-Amino-1H-indazol-5-yl)-((S)-2-benzyl-piperidin-1-yl)-methanone], the IC50 lay in the range of 0.01 to 0.1 µM.

On to `Nc1n[nH]c2ccc(C(=O)N3CCCCC3Cc3ccccc3)cc12` (stereo in doubt) [compound 89, (3-Amino-1H-indazol-5-yl)-((R)-2-benzyl-piperidin-1-yl)-methanone], for which the half-inhibitory concentration (IC50) is 0.1 to 1 µM.

As for `Cc1n[nH]c2ncc(C(=O)N3CC[C@H](C)C3c3ccc(C(F)(F)F)cc3)cc12` (stereo in doubt) [compound 171, (3-Methyl-1H-pyrazolo[3,4-b]pyridin-5-yl)-[(2S,3S)-3-methyl-2-(4-trifluoromethyl-phenyl)-pyrrolidin-1-yl]-methanone], the half-inhibitory concentration (IC50) lay in the range of 0.01 to 0.1 µM.

As to `O=C(c1cnc2[nH]nc(C(F)(F)F)c2c1)N1CCC[C@H]1c1ccc(Cl)cc1` (stereo in doubt) [compound 180, [(S)-2-(4-Chloro-phenyl)-pyrrolidin-1-yl]-(3-trifluoromethyl-1H-pyrazolo[3,4-b]pyridin-5-yl)-methanone], the IC50 is below 0.01 µM.

The same experiment, now with this note: IC50 [μM], CDK8 co-expressed with CycC; class symbols.
Turning to `Cc1n[nH]c2ncc(C(=O)N3CCCC3c3ccc(Cl)cc3)cc12` (racemic) [compound 10, [2-(4-Chloro-phenyl)-pyrrolidin-1-yl]-(3-methyl-1H-pyrazolo[3,4-b]pyridin-5-yl)-methanone], the concentration for half-maximal inhibition (IC50) is below 0.01 µM.

`Nc1n[nH]c2ccc(C(=O)N3CCCC3c3ccc(Cl)cc3)cc12` (racemic) [compound 78, (3-Amino-1H-indazol-5-yl)-[2-(4-chloro-phenyl)-pyrrolidin-1-yl]-methanone] had a half-maximal inhibitory concentration (IC50) below 0.01 µM.

The values are drawn from patent publication US9862717B2 (Merck Patent GmbH, priority 2014, dated 2018).
